Among the data in patent US12467927B2, “Fluorescence resonance energy transfer (FRET) nanoprobe and preparation method and use thereof” (QILU UNIVERSITY OF TECHNOLOGY, priority 2022, dated 2025) are zeta potential values, retold here.

The data set can be described thus: Zeta potential determination. The class given is physicochemical. The method, then:
Size and Zeta potential determinations were conducted on a Zetasizer Nano ZS (ZEN 3600, Malvern Instruments Ltd.). Transmission electron microscopy (TEM) images were determined by a transmission electron microscope (JEM-2100, JEOL). The fluorescence was measured by an F-4600 Fluorescence Spectrophotometer (Japan); the confocal fluorescence images of cells were obtained by a Nikon laser confocal microscope (Nikon, Japan).
The synthesized HMSN were characterized by TEM and dynamic light scattering (DLS). […] Meanwhile, the particle size distribution measured by DLS was mainly around 140 nm (FIG. 2). The experimental data was matched up with each other. […] The particle size of PAMAM (G=1.5) dendrimer was characterized by TEM. […] The particle size distribution measured by DLS was around 8 nm (FIG. 5). […] Meanwhile, to prevent the early leakage of DOX, the DOX was encapsulated by the RVRR peptide and PAMAM/TPE. To verify the successful encapsulation of HMSN/DOX, TEM characterization was conducted. […] Characterized by DLS and Zeta potential, the particle size distribution of the transparent thin layer structure was around 160 nm (FIG. 7), and a Zeta potential was 3.25 mV (FIG. 8).

`COc1cccc2c1C(=O)c1c(O)c3c(c(O)c1C2=O)C[C@@](O)(C(=O)CO)C[C@@H]3O[C@H]1C[C@H](N)[C@H](O)[C@H](C)O1` [DOX, doxorubicin] gave a zeta potential of 24.3 mV. As for `O=C(O)c1ccc(C(=C(c2ccccc2)c2ccccc2)c2ccccc2)cc1` [TPE-COOH, 1-(4-carboxyphenyl)-1,2,2-triphenylethylene], the zeta potential is −8.6 mV.
